# Reference: publication PMC5729930, “Bitopic fluorescent antagonists of the A2A adenosine receptor based on pyrazolo[4,3-e][1,2,4]triazolo[1,5-c]pyrimidin-5-amine functionalized congeners” (MedChemComm, 2017)
# Molecular target: 45 diverse receptors
# Assay: PDSP comprehensive off-target screen
# Assay type: binding
# Conditions: PDSP comprehensive screen at 45 targets
# Description: . Off-target binding activities at 45 diverse receptors were determined by PDSP[25] for selected compounds: 6c and 13 (ESI ^†). […]; 1.92 μM, 5HT2B receptor. Thus, the primary amine precursor of the fluorescent conjugates 10–12 was not promiscuous in its interaction with other proteins, i.e. this chemical series is not associated with pan-assay interference compounds.[26]
# Chinese hamster ovary (CHO) cells stably expressing the human A2AAR were cultured in Dulbecco's Modified Eagle Medium (Mediatech, Manassas, VA) supplemented with 10% fetal bovine serum, 100 units/ml penicillin, 100 µg/ml streptomycin and 2 µmol/ml glutamine. Cells were plated in 96-well plates in 100 µl medium. After 24 h, the medium was removed and cells were washed three times with 100 µl DMEM, containing 50 mM HEPES, pH 7.4. Cells were treated with antagonists (or medium for control) in the presence of rolipram (10 µM) and adenosine deaminase (3 units/ml) and 5 min later with agonist for 20 min. The reaction was terminated by removal of the supernatant, and cells were lysed upon the addition of 100 µl of lysis buffer (0.3% Tween-20). cAMP was measured using ALPHAScreen cAMP kits (PerkinElmer, Boston, MA) as instructed by the manufacturer.
# Refer to: http://pdspdb.unc.edu for full list of comprehensive screen at 45 targets.
# 5HT2A serotonin receptor: […]
structure (smiles),measurement,value
N.Nc1nc2c(cnn2CCCc2ccc(OCc3ccc(S(=O)(=O)O)cc3)cc2)c2nc(-c3ccco3)nn12 [compound 13],Off-target interactions (Ki in radioligand binding inhibition < 10 µM),None detected
